According to ChEMBL document CHEMBL1201862, “PubChem BioAssay data set” (2004):
Calls of active or inactive are those of the source. For most assays here, no stated cut-off is given here; in the data, actives have a measured EC50 and inactives only a lower limit.

Experiments:
Paired box protein Pax-8 = Paired box protein Pax-8 (Homo sapiens, UniProt Q06710); experiment: inhibitors of PAX8-driven TPO luciferase reporter, dose response, RMG-I cells, cherry-pick (AID 687027); format: functional, cell-based;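 further: luciferase reporter driven by Pax8 target thyroperoxidase promoter measured by SteadyGlo luminescence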
[1] = inhibitors of intracellular T. cruzi replication, confirmation, NIH3T3 host cells, beta-gal luminescence (AID 2044); format: functional, cell-based;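 further: intracellular parasites grown in NIH/3T3 mouse fibroblasts as host cells; luminescent beta-galactosidase reporter signal from transgenic T. cruzi replicating inside host cells; inhibitors lower the luminescence signal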
[2] = cytotoxicity toward NIH3T3 fibroblasts, dose response, counter-screen, cell-based, ATP luminescence, mouse fibroblasts (AID 2010); format: functional;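 further: cells exposed to compound for about 90 hours before reading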
[3] = Luminescence Cell-Based Dose Retest to Confirm Inhibitors of Cancer Stem Cells. [Related pubchem assays (depositor defined):AID2717, AID2721]; format: functional; details: Homo sapiens
INS1 = experiment: beta cell apoptosis inhibitors, cytokine rescue, dose response, luminescence, retest (AID 449756); format: functional, cell-based; details: Rattus norvegicus;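 further: cell death triggered by IL-1 beta plus TNF-alpha plus IFN-gamma mixture; protective hits raise ATP signal compared with cytokine alone wells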
[4] = HEp-2 cell cytotoxicity, dose response, cytotoxicity control for RSV inhibitor project, HTS (AID 2410); format: functional; details: human respiratory syncytial virus
[5] = Luminescence Cell-Based Dose Confirmation HTS to Identify Activators of 5'UTR Stem-Loop Driven Alpha-Synuclein mRNA Translation in H4 Neuroglioblastoma Cells. [Related pubchem assays: 1829 (Project Summary), 1814 (Primary HTS)]; format: functional
[6] = Luminescence Cell-Based Dose Response HTS to Identify Activators of Luciferase Translation or Activity in H4 […] Cells. [Related pubchem assays: 1829 (Project Summary), 1814 (Primary HTS)]; format: functional
H4 = experiment: Luminescence Cell-Based Dose Response HTS to Identify Activators of 5'UTR Stem-Loop Driven Prion Protein mRNA Translation in H4 Neuroglioblastoma Cells. [Related pubchem assays: 1829 (Project Summary), 1814 (Primary HTS)]; format: functional; details: Homo sapiens
[7] = Shn3 3'UTR reporter inhibitors, dose response, cell-based, Clone20 osteoblasts, firefly luciferase, cherry-picked (AID 624132); format: functional;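 further: firefly luciferase luminescence from reporter carrying the Shn3 3'UTR in osteoblasts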
[8] = HepG2 cell cytotoxicity, dose response, cytotoxicity control for Shn3 inhibitor project, CellTiter-Glo, cherry-picked (AID 624134); format: functional, cell-based
cells [9] = format: functional, cell-based
cells [10] = format: functional, cell-based; remark: listed apart in the source
[11] = Luminescence Cell-Based Dose Response HTS to Identify Inhibitors of 5'UTR Stem-Loop Driven Prion Protein mRNA Translation in H4 Neuroglioblastoma Cells. [Related pubchem assays: 1827 (Project Summary), 1813 (Primary HTS)]; format: functional
[12] = inhibitors of firefly luciferase expression or activity, dose response, H4 neuroglioma cells, luminescence (AID 1990); format: functional, cell-based
[13] = inhibitors of SNCA 5'UTR-driven reporter translation, confirmation, H4 neuroglioma cells, luminescence (AID 1988); format: functional, cell-based
[14] = control 3'UTR Renilla luciferase suppression, dose response, counter-screen for Shn3 inhibitor project, cell-based, Clone20-Shn3RL, cherry-picked (AID 624133); format: functional
Cytochrome P450 1A2 = biological target: T1, Cytochrome P450 1A2 (Homo sapiens, UniProt P05177);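 further: PubChem cytochrome P450 panel assay, CYP1A2 panel member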
T1 sequence (P05177 whole entry): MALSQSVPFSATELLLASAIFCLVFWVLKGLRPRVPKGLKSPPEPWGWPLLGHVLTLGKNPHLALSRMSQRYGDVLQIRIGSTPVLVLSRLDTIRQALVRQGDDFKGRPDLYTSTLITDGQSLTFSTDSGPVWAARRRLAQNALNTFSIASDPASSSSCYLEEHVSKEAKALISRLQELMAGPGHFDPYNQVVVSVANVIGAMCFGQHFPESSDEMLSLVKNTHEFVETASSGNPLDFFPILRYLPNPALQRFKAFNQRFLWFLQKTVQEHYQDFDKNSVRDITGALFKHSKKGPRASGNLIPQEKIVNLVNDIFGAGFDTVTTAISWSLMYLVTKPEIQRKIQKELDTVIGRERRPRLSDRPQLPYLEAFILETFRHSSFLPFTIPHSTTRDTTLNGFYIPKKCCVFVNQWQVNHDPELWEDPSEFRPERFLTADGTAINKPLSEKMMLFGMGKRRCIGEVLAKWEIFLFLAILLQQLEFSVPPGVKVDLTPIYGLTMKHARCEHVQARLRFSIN

Sequence of Paired box protein Pax-8 (Q06710 whole entry): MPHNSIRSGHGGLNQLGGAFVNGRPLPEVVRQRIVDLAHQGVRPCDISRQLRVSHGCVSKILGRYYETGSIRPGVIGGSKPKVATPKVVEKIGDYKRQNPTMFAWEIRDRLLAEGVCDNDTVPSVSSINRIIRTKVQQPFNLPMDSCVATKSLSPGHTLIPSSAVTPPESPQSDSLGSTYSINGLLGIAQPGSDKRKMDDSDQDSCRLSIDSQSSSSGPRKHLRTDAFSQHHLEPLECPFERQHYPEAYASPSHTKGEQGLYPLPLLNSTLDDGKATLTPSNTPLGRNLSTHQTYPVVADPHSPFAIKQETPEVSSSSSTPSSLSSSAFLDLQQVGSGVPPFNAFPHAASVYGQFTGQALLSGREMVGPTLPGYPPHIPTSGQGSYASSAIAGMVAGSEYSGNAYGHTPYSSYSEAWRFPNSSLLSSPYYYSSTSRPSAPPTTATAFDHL

For `Cc1ccc(S(=O)(=O)N(C)C[C@H]2Oc3ccc(NC(=O)Nc4ccc(C(F)(F)F)cc4)cc3CC(=O)N([C@H](C)CO)C[C@@H]2C)cc1`, the AC50 (Paired box protein Pax-8) was 7.34 µM (active).
With `Cc1c(C(=O)c2cccc3ccccc23)c2cccc3c2n1[C@H](CN1CCOCC1)CO3` the AC50 (Paired box protein Pax-8) was 8.77 µM (active), the EC50 [1] was 0.887 µM (active) and the EC50 [2] was 55.9 µM (active). For the same molecule, the AC50 [3] was 3.47 µM (active).
In the case of `O=C(c1ccc(-c2ccc(Cl)cc2)o1)N1CCN(c2ccc([N+](=O)[O-])cc2Cl)CC1`, the AC50 (INS1) is reported as 3.58 µM (active) and the CC50 [4] is reported as 9.46 µM (active).
In the case of `CCC(C)[C@H](NC(=O)N1CC(=O)Nc2ccccc21)C(=O)Nc1ccccc1C` (stereo not given in full), the EC50 [5] is reported as > 120 µM (not active), the EC50 [6] is reported as 27.5 µM (active) and the EC50 (H4) is reported as > 120 µM (not active).
In the case of `Cc1oc(=O)c(NC(=O)c2ccc(Cl)cc2)cc1C(=O)c1ccccc1`, the AC50 [7] is reported as 32.1 µM (active) and the AC50 [8] is reported as > 70 µM (inactive).
With `CCOC(=O)C1CCN(C(=O)C2CCCN(c3ncnc4c3nc3n4CCCCC3)C2)CC1` (stereo not given) the EC50 (cells [9]) was > 350 µM (not active) and the EC50 (cells [10]) was > 350 µM (not active).
For `COc1cc(C)ccc1OCCOc1ccccc1Cl`, the EC50 [5] was 32.5 µM (active), the EC50 [6] was 87.3 µM (active) and the EC50 (H4) was 18.6 µM (active).
With `CN(C#N)c1nccc(-c2cccs2)n1` the CC50 [4] was 23.8 µM (active).
In the case of `Cc1cc(N2CCCC2)ccc1/C=C1\NC(=S)N(C)C1=O`, the EC50 [5] is reported as 22.1 µM (active), the EC50 [6] is reported as 20 µM (active) and the EC50 (H4) is reported as 35.5 µM (active).
With `c1ccc(C2=Nc3ccccc3SC2c2nc3ccccc3[nH]2)cc1` (stereo not given) the EC50 [5] was 0.47 µM (active), the EC50 [6] was 24.1 µM (active) and the EC50 (H4) was > 120 µM (not active).
With `COC(=O)[C@@]12CCCCN1[C@H](c1ccc(-c3ccc(OC)cc3)cc1)[C@@H]1C(=O)N(C)C(=O)[C@@H]12` the CC50 [4] was 17.7 µM (active).
With `CNc1nc(N/N=C/c2cc3c(cc2[N+](=O)[O-])OCO3)nc(Nc2ccccc2)n1` the EC50 [1] was 2.42 µM (active), the EC50 [11] was 9.97 µM (active) and the EC50 [12] was 9.21 µM (active). For the same molecule, the AC50 (INS1) was 13.2 µM (active), the EC50 [13] was 12.7 µM (active) and the EC50 [2] was > 60 µM (inconclusive).
In the case of `C[C@@H]1CCCCO[C@@H](CN(C)Cc2ccc(C(F)(F)F)cc2)[C@H](C)CN([C@@H](C)CO)C(=O)c2cc(NS(=O)(=O)c3ccc(Cl)cc3)ccc2O1`, the AC50 (Paired box protein Pax-8) is reported as 9.89 µM (active).
In the case of `CCOc1ccc(-c2nnc(N3CCCCC3)c3ccccc23)cc1`, the AC50 [14] is reported as 8.24 µM (active), the AC50 [7] is reported as 14.9 µM (active) and the AC50 [8] is reported as > 70 µM (inactive).
With `Cc1cccc2sc(N3CCN(C(=O)C4COc5ccccc5O4)CC3)nc12` (stereo not given) the CC50 [4] was 25.8 µM (active).
In the case of `COc1ccc(-c2csc(NC(=S)NC(=O)/C=C/c3ccco3)n2)cc1Br`, the EC50 [11] is reported as > 120 µM (not active), the EC50 [12] is reported as > 120 µM (not active) and the EC50 [13] is reported as 9.94 µM (inconclusive). The AC50 [3] was 0.47 µM (active).
With `O=S(=O)(c1ccc(Cl)cc1)N1c2ccccc2Oc2nc3ccccc3nc21` the EC50 [5] was > 120 µM (not active), the EC50 [6] was > 120 µM (not active) and the EC50 (H4) was > 120 µM (not active).
With `COc1cccc(Cn2nnc3c(O)nc(C4CCCN(C(=O)c5ccccc5Cl)C4)nc32)c1` (stereo not given) the EC50 [11] was > 120 µM (not active), the EC50 [12] was > 120 µM (not active) and the AC50 (Cytochrome P450 1A2) was 25.1 µM (inconclusive). For the same molecule, the EC50 [13] was > 120 µM (not active).
With `Cc1ccc(OCc2nnc(SCC(=O)Nc3cccc4ccccc34)n2-c2ccccc2)cc1` the EC50 [11] was > 120 µM (not active), the EC50 [12] was > 120 µM (not active) and the EC50 [13] was > 120 µM (not active).
In the case of `Cn1c(SCc2ccc(F)cc2Cl)nc2ccccc2c1=O`, the AC50 [14] is reported as 3.09 µM (active), the AC50 [7] is reported as 8.65 µM (active) and the AC50 [8] is reported as 8.38 µM (active).
For `CC(C)(C)c1ccc(OC(=O)N2CCOCC2)cc1`, the EC50 [5] was 23.7 µM (active), the EC50 [6] was > 120 µM (not active) and the EC50 (H4) was 1.3 µM (active).
In the case of `Cc1ccnc(NC(=S)NC(=O)/C=C/c2ccco2)c1`, the EC50 [5] is reported as 0.458 µM (active), the EC50 [6] is reported as 9.64 µM (active) and the EC50 (H4) is reported as > 120 µM (not active).
In the case of `Cc1cc(Sc2ccc([N+](=O)[O-])cn2)ccc1Br`, the AC50 [14] is reported as 31.4 µM (active) and the AC50 [8] is reported as > 70 µM (inactive).
With `O=C(NCCc1ccccc1)C1CCN(S(=O)(=O)c2ccc(-n3cnnn3)cc2)CC1` the EC50 (cells [9]) was > 350 µM (not active) and the EC50 (cells [10]) was > 350 µM (not active).
With `COc1ccc(-c2nc(-c3ccc(NC(=O)c4ccncc4)cc3)no2)cc1OC` the AC50 [14] was 3.85 µM (active), the AC50 [7] was 2.36 µM (active) and the AC50 [8] was 4.96 µM (active).
With `CCN(CC)c1ccc(NC(=O)CSc2nc(O)c3c(C)cc(C)nc3n2)cc1` the EC50 (cells [9]) was > 350 µM (not active) and the EC50 (cells [10]) was > 350 µM (not active).
With `Cc1nn(Cc2ccccc2Cl)c2sc(C(=O)NC(C)(C)C)cc12` the CC50 [4] was > 50 µM (active).
For `CC(=O)Nc1c([N+](=O)[O-])cc(C)c(Cl)c1[N+](=O)[O-]`, the EC50 (cells [9]) was > 350 µM (not active) and the EC50 (cells [10]) was > 350 µM (not active).
With `Fc1cnc(N/N=C/c2ccc(-c3ccc(Br)cc3)o2)nc1N1CCOCC1` the CC50 [4] was 6.89 µM (active).
For `O=C1N/C(=C/c2cccs2)C(=O)N1Cc1ccc(Br)cc1`, the EC50 (cells [9]) was > 350 µM (not active) and the EC50 (cells [10]) was > 350 µM (not active).
In the case of `O=C(COC(=O)/C(=C/c1cccs1)c1cccs1)NC(c1ccccc1)c1ccccc1`, the AC50 (Paired box protein Pax-8) is reported as 8.36 µM (active).
With `O=C(NS(=O)(=O)c1ccc2c(c1)OCCO2)c1ccccc1` the EC50 (cells [9]) was > 350 µM (not active) and the EC50 (cells [10]) was > 350 µM (not active).
In the case of `O=C(NCCc1csc(-c2cccc(F)c2)n1)c1ccco1`, the EC50 (cells [9]) is reported as > 350 µM (not active) and the EC50 (cells [10]) is reported as > 350 µM (not active).
In the case of `CC(Sc1nnc(COc2ccc([N+](=O)[O-])cc2)n1C)C(=O)O` (stereo not given), the EC50 (cells [9]) is reported as > 350 µM (not active) and the EC50 (cells [10]) is reported as > 350 µM (not active).
In the case of `CC(NC(=O)c1cc(COc2ccc3ncccc3c2)on1)c1ccc(F)cc1` (stereo not given), the AC50 [14] is reported as 2.2 µM (active), the AC50 (INS1) is reported as 4.52 µM (active) and the AC50 [7] is reported as 2.28 µM (active). The AC50 [8] was 2.86 µM (active).
With `CCCCNc1nc2c(c(=O)n(C)c(=O)n2C)n1Cc1cccc(OC)c1` the AC50 [14] was 1.13 µM (active), the AC50 [7] was 0.284 µM (active) and the AC50 [8] was 3.87 µM (active).
For `C(=N\N1CCN(C(c2ccccc2)c2ccccc2)CC1)/c1ccc2c(c1)OCO2`, the EC50 [11] was 0.672 µM (active), the EC50 [12] was > 120 µM (not active) and the EC50 [13] was > 120 µM (not active).
For `Cc1nn(C)c(Cl)c1CN1CCCC(CO)(Cc2ccccc2)C1` (stereo not given), the CC50 [4] was > 50 µM (active).
With `CCn1nc(C)c(NC(=O)/C=C/c2ccc(OC)c(COc3ccc(Br)cc3)c2)c1C` the EC50 [1] was 2.52 µM (active), the EC50 [11] was 23.7 µM (active) and the CC50 [4] was 31.6 µM (active). The EC50 [13] was 13.4 µM (active) and the EC50 [2] was > 60 µM (not active).
For `Cn1nc(C(F)(F)F)cc1C(=O)NC1CCCCCC1`, the EC50 (cells [9]) was > 350 µM (not active) and the EC50 (cells [10]) was > 350 µM (not active).
With `CCOC(=O)Cc1csc(NC(=O)/C=C/c2ccc(Cl)cc2)n1` the CC50 [4] was 4.57 µM (active).
With `O=C(COC(=O)Cc1ccc(S(=O)(=O)N2CCCCC2)s1)Nc1ccc2c(c1)OCO2` the EC50 (cells [9]) was > 350 µM (not active) and the EC50 (cells [10]) was > 350 µM (not active).
In the case of `CCc1ccc(CNCc2ccc(OCC(O)CN(C)Cc3ccccc3)cc2)nc1` (stereo not given), the AC50 [14] is reported as 14.2 µM (active), the AC50 [7] is reported as 4.43 µM (active) and the AC50 [8] is reported as 25 µM (active).
